Measured values taken from patent US10829427B2, “Naphthoquinones, pro-drugs, and methods of use thereof” (The Board of Regents of the University of Texas System, priority 2015, dated 2020).
Like-named read-outs stand apart in the source and are kept apart here.

Assays:
Mia PaCa-2 cells = assay: ATP assay (ATP depletion / cell viability) in Mia PaCa-2 cells; assay type: cell-based, human; settings: for IC50/IC50 (β-lapachone/Compoud): Relative activity compare with β-lapachone in ATP depletion of Mia PaCa-2 cells; for IC50: read-out: Inhibition of cell viability of ATP assay IC50
Protocol: (§1) In vitro anti-cancer activity of the compound were performed using ATP Assay Kit (Abcam, ab83355) to initially screen, and further performed using 7-day DNA assay.
(§2) Cell culture: endogenous NQO1 overexpressing human MIA PaCa-2 pancreactic and A549 NSCLC cancer cells were obtained (Bey, et al., 2007; Li, et al., 2011). Cancer cells were grown in DMEM with 5% FBS and Mycoplasma free, and cultured at 37° C. in a 5% CO2 95% air humidified atmosphere.
ATP assay: Cells were seeded into each well of a 96-well plate (15000 cells/well) 18 hours ahead of experiment. After aspiration of the media from each well, 100 μl drug-contained media was added instead, and further incubated for 2 hours. After incubation, 100 μl ATP assay kit mixture was added into every well. Following further shaking for 10 minutes with light proof, the data were collected by reading luminescence integrate 1 second per well.

A549 cells = assay: Cell viability in A549 cells (7-day DNA assay); assay type: cell-based, human; settings: relative to β-lapachone
Protocol: as §1, §2
DNA assay: Cells were seeded into each well of a 48-well plate (10000 cells/well) 24 hours ahead of experiment. After aspiration of the media from each well, 500 μl drug-contained media was added instead, and further incubated for 2 hours. Drugs were then removed, control growth medium was added, and cells were allowed to grow for an additional 7 days. Drugs were added to medium at a 1:1000 dilution immediately before administration to cells. DNA content (a measure of cell growth) was determined by fluoresence of the DNA dye Hoescht 33258 (Sigma), and read in a Cytofluor fluoresence plate reader. Data were expressed as relative growth with 6 repetitions.

MiaPaca 2 = assay: Relative survival DNA assay, MiaPaca 2, with or without dicoumarol; assay type: cell-based, human; settings: for DNA amount in survival assay relative to β-lapachone: MiaPaca 2, FIGS. 4A-4C; for IC50: read-out: Inhibition of cell survival of DNA assay IC50
Protocol: (§3) Cell Lines and Culture. Endogenous NQO1 overexpressing human MiaPaca-2 (pancreatic carcinoma), A549 (None-small cell lung carcinoma), and MCF-7 (breast adenocarcinoma) were obtained (Bey, et al., 2007; Li, et al., 2011). All cell lines were grown in DMEM (Life Technologies) containing 5%-10% FBS (Fisher Scientific) in a 5% CO2 and 95% air incubator at 37° C.
(§4) Relative Survival Assays. Relative survival was assessed by DNA content and colony forming assays as described (Dong, et al., 2010). Briefly, for DNA content, cells were seeded at 1×10^4 per well in 48-well plates and allowed to attach overnight. Cells were then mock treated or treated with various doses of naphthaquinones (for 2 hours) in the presence or absence of dicoumarol as indicated. Drug-free medium was then added and cells were allowed to grow for 5 to 7 days until control cells reached ˜100% confluence. DNA content was then determined by Hoechst 33258 staining and fluorescence detection using a plate reader (Perkin-Elmer).

A549 = assay: Relative survival DNA assay, A549, with or without dicoumarol; assay type: cell-based, human; settings: for DNA amount in survival assay relative to β-lapachone: A549, FIGS. 4G-4I; for IC50: read-out: Inhibition of cell survival of DNA assay IC50
Protocol: as §3, §4

MCF-7 = assay: Relative survival DNA assay, MCF-7, with or without dicoumarol; assay type: cell-based, human; settings: for DNA amount in survival assay relative to β-lapachone: MCF-7, FIGS. 4D-4F; for IC50: read-out: Inhibition of cell survival of DNA assay IC50
Protocol: as §3, §4

H596 = assay: Relative survival DNA assay, H596 (low NQO1 expression); assay type: cell-based; settings: for IC50: H596 (low NQO1 expression), Vehicle, read-out: Inhibition of cell survival of DNA assay IC50
Protocol: as §4

orthotopic A549 model = assay: In vivo anti-tumor efficacy, NOD-SCID mice bearing orthotopic A549 model; settings: for Survival relative to vehicle: orthotopic A549, FIG. 7C
Protocol: Formulation. β-lap-HPβCD formulation was prepared according to our previous report.^14 NQ-059 and HPβCD (1:45, w/w) were dissolved in EtOH, and then concentrated in vacuo to form a thin film or a sponge-like film. PBS was added, and a clear solution was formed with shaking. Immediately filtration through a Ø 0.45 µm filter (Whatman), a stable solution was afforded, whose concentration was quantified by UV-vis at 256 nm.
(§5) Survival and Antitumor Efficacies. 6- to 8-week-old NOD-SCID female mice were tail-vein administrated with luciferase gene-transfected A549 cells (1.0×106), and randomized into groups (n=7-13/group), monitored for tumor formation in the lungs using bioluminescence (BLI) following treatment with vehicle, β-lap-HPβCD, or NQ-059-HPβCD. An average of 1.0×10^7 total photons was used before any therapies were given as described (Huang, et al., 2012). Animals were treated with vehicle, β-lap-HPβCD (20 mg/kg), or NQ-059-HPβCD (15 and 12 mg/kg) via tail vein and repeated five times every 3 days. Tumor-bearing mice were imaged using BLI to estimate relative tumor volumes as described (Ma, et al., 2015) using D-luciferin (Promega, 2.5 mg, subcutaneously injected). Relative tumor volume estimates were derived from BLI images of mice captured using a Xenogen Vivovision IVIS Lumina Imager (60 s exposure time). Animals were monitored daily for survival and morbidity. Mortality was recorded over times as a result of cancer-related deaths or drug-related toxicities (≥20% body weight loss relative to the start of therapy). Athymic Nu/Nu nude female mice (18-20 grams) were commercially obtained (Harlan). Human xenografts were generated by injecting 2×10^6 MiaPaca-2 cells subcutaneously in PBS/Matrigel into 6-week-old mice. Tumors were measured at indicated times with digital calipers (Fisher Scientific), and tumor volumes calculated (length×width^2×0.5). Treatments were initiated when subcutaneous tumors reached an average size of >100 mm (Cao, et al., 2003).

[1] = test system: subcutaneous MiaPaca-2 model; assay: In vivo anti-tumor efficacy, nude mice bearing subcutaneous MiaPaca-2 model; parameters: species or system Athymic Nu/Nu nude female mice; settings: subcutaneous MiaPaca-2 tumor model, FIG. 8
Protocol: as §5, with “Human xenografts were generated by injecting 2×10^6 MiaPaca-2 cells subcutaneously in PBS/Matrigel into 6-week-old mice.” left out, “Treatments were initiated when subcutaneous tumors reached an average size of >100 mm (Cao, et al., 2003).” left out

blood = assay: Hemolysis assay; settings: formulated with cyclodextran 1:30; relative to a blank cyclodextran or a DMSO vehicle, FIG. 9
Excerpt: Hemolysis assay. Hemolysis was quantified and modified according to method previously described (Blanco, et al., 2010). Briefly, after treatment with the blood, the plasma was separated and tested with UV-Vis at 576 nm, and hemolysis was quantified comparing treatment group and control group.

red blood cells = assay: Methemoglobinemia assay; settings: formulated with cyclodextran 1:30; relative to a blank cyclodextran or a DMSO vehicle, FIG. 10
Protocol: Methemoglobinemia assay. Collected red blood cells were suspended in 96 well plates or single wells, then were treated with drug for certain time at 37° C. Immediately after the treatment completed, the cells were sit in ice-bath and lysed with 5% Triton X-100. The clear solution afforded were tested with UV-vis at 630 nm, and then were treated with […] K3FeCN6 for 1 min. The yellow solution afforded was tested again at 630 nm.

## CC(C)OC1=CC(=O)C(=O)c2cc(Cl)ccc21 [Compound 4, 7-chloro-4-isopropoxynaphthalene-1,2-dione]
Mia PaCa-2 cells
  IC50/IC50 (β-lapachone/Compoud): 1~2
A549 cells
  IC50/IC50 (β-lapachone/Compoud): 1~2

## CC(C)OC1=CC(=O)C(=O)c2c(NS(C)(=O)=O)cccc21 [Compound 21, N-(5-isopropoxy-7,8-dioxo-7,8-dihydronaphthalen-1-yl)methanesulfonamide]
Mia PaCa-2 cells
  IC50/IC50 (β-lapachone/Compoud): >3
A549 cells
  IC50/IC50 (β-lapachone/Compoud): >3
MiaPaca 2
  DNA amount in survival assay relative to β-lapachone: decreased DNA amounts at lower concentrations relative to β-lapachone
A549
  DNA amount in survival assay relative to β-lapachone: decreased DNA amounts at lower concentrations relative to β-lapachone
MCF-7
  DNA amount in survival assay relative to β-lapachone: decreased DNA amounts at lower concentrations relative to β-lapachone

## CC1(C)CCC2=C(O1)c1ccccc1C(=O)C2=O [β-lapachone, reference compound]
Mia PaCa-2 cells; MiaPac-2, Vehicle
  IC50: 2.79 µM
MiaPaca 2; MiaPaca 2, Dic (dicoumarol, NQO1 inhibitor)
  IC50: > 10 µM
MiaPaca 2; MiaPaca 2, Vehicle
  IC50: 4.33 µM
A549; A549, Dic (dicoumarol, NQO1 inhibitor)
  IC50: > 10 µM
A549; A549, Vehicle
  IC50: 4.94 µM
MCF-7; MCF-7, Dic (dicoumarol, NQO1 inhibitor)
  IC50: 9.02 µM
MCF-7; MCF-7, Vehicle
  IC50: 2.1 µM
H596
  IC50: > 10 µM
Orthotopic A549 model; after 74 days, β-lap-HPβCD 20 mg/kg
  Tumor growth via bioluminescence imaging: some tumor growth
Orthotopic A549 model; after day 44, β-lap-HPβCD 20 mg/kg
  Tumor growth via bioluminescence imaging: some minor tumor growth
Orthotopic A549 model
  Survival relative to vehicle: small improvement over vehicle
[1]
  Tumor volume relative to the vehicle: did not

## CC(C)OC1=CC(=O)C(=O)c2ccc(Cl)cc21 [Compound 34, 6-chloro-4-isopropoxynaphthalene-1,2-dione]
Mia PaCa-2 cells
  IC50/IC50 (β-lapachone/Compoud): 1~2
A549 cells
  IC50/IC50 (β-lapachone/Compoud): 0.3~1

## CCCCCCOC1=CC(=O)C(=O)c2c(NC(C)=O)cccc21 [Compound 28, N-(5-(hexyloxy)-7,8-dioxo-7,8-dihydronaphthalen-1-yl)acetamide]
Mia PaCa-2 cells
  IC50/IC50 (β-lapachone/Compoud): 1~2
A549 cells
  IC50/IC50 (β-lapachone/Compoud): 1~2

## CC(C)OC1=CC(=O)C(=O)c2c(O)cccc21 [Compound 38, 8-hydroxy-4-isopropoxynaphthalene-1,2-dione]
Mia PaCa-2 cells
  IC50/IC50 (β-lapachone/Compoud): 1~2
A549 cells
  IC50/IC50 (β-lapachone/Compoud): 1~2

## CC(=O)Nc1cccc2c1C(=O)C(=O)C=C2OC(C)C [Compound 24, N-(5-isopropoxy-7,8-dioxo-7,8-dihydronaphthalen-1-yl)acetamide]
Mia PaCa-2 cells; ATP assay, MiaPac-2, Vehicle
  Fold (IC50 β-lap/IC50 NQ-059): 2.9
Mia PaCa-2 cells; Homo sapiens, MIA PaCa-2, MiaPac-2, Vehicle
  IC50: 0.97 µM
Mia PaCa-2 cells
  IC50/IC50 (β-lapachone/Compoud): >3
A549 cells
  IC50/IC50 (β-lapachone/Compoud): >3
MiaPaca 2; DNA assay, MiaPaca 2, Vehicle
  Fold (IC50 β-lap/IC50 NQ-059): 4.9
MiaPaca 2; Homo sapiens, MIA PaCa-2, MiaPaca 2, Dic (dicoumarol, NQO1 inhibitor)
  IC50: > 10 µM
MiaPaca 2; Homo sapiens, MIA PaCa-2, MiaPaca 2, Vehicle
  IC50: 0.88 µM
MiaPaca 2; MiaPac2, FIG. 5A
  Activity relative to β-lapachone on the same plate: increased activity
MiaPaca 2
  DNA amount in survival assay relative to β-lapachone: decreased DNA amounts at lower concentrations relative to β-lapachone
A549; A549, FIG. 5B
  Activity relative to β-lapachone on the same plate: increased activity
A549
  DNA amount in survival assay relative to β-lapachone: decreased DNA amounts at lower concentrations relative to β-lapachone
A549; DNA assay, A549, Vehicle
  Fold (IC50 β-lap/IC50 NQ-059): 3.9
A549; Homo sapiens, A549, A549, Dic (dicoumarol, NQO1 inhibitor)
  IC50: > 10 µM
A549; Homo sapiens, A549, A549, Vehicle
  IC50: 1.25 µM
MCF-7; DNA assay, MCF-7, Vehicle
  Fold (IC50 β-lap/IC50 NQ-059): 2.2
MCF-7; Homo sapiens, MCF7, MCF-7, Dic (dicoumarol, NQO1 inhibitor)
  IC50: > 10 µM
MCF-7; Homo sapiens, MCF7, MCF-7, Vehicle
  IC50: 0.95 µM
MCF-7
  DNA amount in survival assay relative to β-lapachone: decreased DNA amounts at lower concentrations relative to β-lapachone
H596; H596, FIG. 4J
  DNA amount in survival assay: lowest amount of DNA at the lowest concentration
H596; Homo sapiens, NCI-H596
  IC50: > 10 µM
Orthotopic A549 model; after 74 days, 12 mg/kg
  Tumor growth via bioluminescence imaging: some growth
Orthotopic A549 model; after day 44, 12 mg/kg
  Tumor growth via bioluminescence imaging: Neither 12 mg/kg or 15 mg/kg NQ-059 showed any tumor growth
Orthotopic A549 model; after day 44, 15 mg/kg
  Tumor growth via bioluminescence imaging: Neither 12 mg/kg or 15 mg/kg NQ-059 showed any tumor growth
Orthotopic A549 model; orthotopic A549, FIG. 7B
  Tumor volume relative to vehicle: significantly improved over the vehicle
Orthotopic A549 model
  Survival relative to vehicle: significantly improved over the vehicle
[1]
  Tumor volume relative to the vehicle: statistically significant improvement
blood
  Hemolysis: reduced toxicity
Red blood cells
  Methemoglobinemia: reduced toxicity

## COCCOCCOC1=CC(=O)C(=O)c2c(NC(C)=O)cccc21 [Compound 49, N-(5-(2-(2-methoxyethoxy)ethoxy)-7,8-dioxo-7,8-dihydronaphthalen-1-yl)acetamide]
Mia PaCa-2 cells
  IC50/IC50 (β-lapachone/Compoud): 0.3~1
A549 cells
  IC50/IC50 (β-lapachone/Compoud): 0.3~1

## COCCOCCOCCOCCOC1=CC(=O)C(=O)c2c(NC(C)=O)cccc21 [Compound 48, N-(5-(2,5,8,11-tetraoxatridecan-13-yloxy)-7,8-dioxo-7,8-dihydronaphthalen-1-yl)acetamide]
Mia PaCa-2 cells
  IC50/IC50 (β-lapachone/Compoud): >3
A549 cells
  IC50/IC50 (β-lapachone/Compoud): >3
